Assay results published in US5866577A, “Aromatic amidine derivatives and salts thereof” (priority 1991, dated 1999).
pIC50: −log10 of the molar value. Where a name gives a salt, the structure may show the parent alone.

What was measured:
[1] = Measurement of Solubility in Water
Method: A fixed amount of water was added to a varying amounts of each sample, and the mixture was agitated on a shaker at 25° C. for 10 minutes.

[2] = system: activated partial thromboplastin time (APTT); assay: Measurement of Anticoagulant Activity in Oral Administration (APTT); type: in vivo, male STD:Wistar rat; details: rat, 100 mg/kg
Method: Measurement of Anticoagulant Activity in Oral Administration
An aqueous solution of each compound to be tested was administered orally to each male STD:Wistar rat individual under an anesthetic, at a dose of 10 ml/kg body weight. Blood samples were collected periodically and blood plasma preparations were obtained from the samples to measure activated partial thromboplastin time (APTT). In the same manner, APTT was measured by administering pure water and used as a control. A test/control APTT ratio was calculated and used as an index of the anticoagulant activity.

[3] = target: human FXa (Homo sapiens, UniProt P00742); assay: Measurement of Activated Blood Coagulation Factor X (FXa) Inhibition Activity; type: biochemical; details: substrate S-2222, 37° C., 15 minutes
Chain of human FXa (P00742 235-488 limits assumed): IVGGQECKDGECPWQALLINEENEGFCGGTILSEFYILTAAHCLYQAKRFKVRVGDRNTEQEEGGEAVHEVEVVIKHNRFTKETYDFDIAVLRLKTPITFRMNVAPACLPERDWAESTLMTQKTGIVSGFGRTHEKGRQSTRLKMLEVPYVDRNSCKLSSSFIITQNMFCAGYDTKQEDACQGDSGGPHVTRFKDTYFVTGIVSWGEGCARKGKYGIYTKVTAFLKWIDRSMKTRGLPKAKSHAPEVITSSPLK
Chain of human FXa (P00742 41-179 limits assumed): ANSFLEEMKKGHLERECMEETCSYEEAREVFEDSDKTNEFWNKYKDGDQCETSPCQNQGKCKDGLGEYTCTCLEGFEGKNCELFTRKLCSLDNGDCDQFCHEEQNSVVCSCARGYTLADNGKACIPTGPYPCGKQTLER
Method: Measurement of Activated Blood Coagulation Factor X (FXa) Inhibition Activity
A 180 μl portion of physiological saline solution containing a compound to be tested was mixed with 200 μl of Tris-HCl buffer (pH 8.4) and 100 μl of 1 mM S-2222 (KabiVitrum AB) aqueous solution, and the mixture was incubated at 37° C. 20 μl of Tris-HCl buffered saline (pH 7.45) containing 0.6 unit/ml of human FXa was added to the mixture. After 15 minutes of incubation at the same temperature, the reaction was stopped by adding 100 μl of 60% acetic acid, and absorbance of the reaction mixture was measured. A reaction mixture with no addition of a test compound was used as a blank, and another reaction mixture in which 60% acetic acid was added prior to the addition of FXa was used as a control.

[4] = system: human blood plasma (clotting time); assay: Measurement of Anticoagulant Activity (plasma clotting time, CT2); type: biochemical; details: concentration which doubles the control clotting time, 37° C.
Method: Measurement of Anticoagulant Activity A blood plasma sample was prepared from human blood using a centrifuge. […] Thereafter, clotting time was measured using CLOTEC (Sanko Junyaku Co., Ltd.). A clotting time measured without adding a compound to be tested was used as a control, and a concentration of the test compound which doubles the control clotting time was calculated (hereinafter referred to as "CT2") as an index of the anticoagulant activity.

[5] = target: T1, thrombin (Bos taurus, UniProt P00735); assay: Measurement of Thrombin Inhibition Activity; type: biochemical
T1 construct: thrombin (for topical application use, Sankyo Co., Ltd.); purchased Sankyo Co., Ltd
Method: Measurement of Thrombin Inhibition Activity
A 100 μl portion of Tris-HCl buffered saline (pH 7.45) (TBS) containing 6 mg/ml of fibrinogen (Type 1, Daiichi Pure Chemicals Co., Ltd.) was mixed with 100 μl of physiological saline solution. At 37° C., 100 μl of Tris-HCl buffered saline (pH 7.45) (TBS) containing varying amounts of thrombin (for topical application use, Sankyo Co., Ltd.) was added to the mixture prepared above to measure clotting time using CLOTEC (Sanko Junyaku Co., Ltd.) and to prepare a calibration curve.

Cl.Cl.N=C(N)c1ccc2oc(C(Cc3ccc(O[C@H]4CCNC4)cc3)C(=O)O)cc2c1 (stereo partly drawn) [Inventive Example 21, 2-(5-amidino-2-benzofuranyl)-3-[4-[((3S)-3-pyrrolidinyl)-oxy]phenyl]propionic Acid Dihydrochloride]
solubility at 10 min [1]: ≥ 600 mg/mL

CC(=N)N1CCC(Oc2ccc(C(Cc3ccc4ccc(C(=N)N)cc4c3)C(=O)O)cc2)CC1.Cl.Cl (stereo not drawn) [Inventive Example 108, 2-[4-[(1-acetimidoyl-4-piperidinyl)oxy]phenyl]-3-(7-amidino-2-naphthyl)propionic Acid Dihydrochloride]
Test/Control APTT Ratio ([2]; 0.5 hr): 2.12
Test/Control APTT Ratio ([2]; 1 hr): 2.18
Test/Control APTT Ratio ([2]; 2 hr): 1.69
Test/Control APTT Ratio ([2]; 4 hr): 1.39
solubility at 10 min [1]: ≥ 350 mg/mL
pIC50 [3]: 7.74
Anti-Coagulation CT2 [4]: 0.3 µM
pIC50 [5]: 3.60

CCCCCC(=N)N1CC[C@H](Oc2ccc(C(Cc3cc4cc(C(=N)N)ccc4s3)C(=O)O)cc2)C1.Cl.Cl (stereo partly drawn) [Inventive Example 94, 3-(5-amidinobenzo[b]thien-2-yl)-2-[4-[((3S)-1-n-hexanimidoyl-3-pyrrolidinyl)oxy]phenyl]propionic Acid Dihydrochloride]
pIC50 [3]: 7.00
Anti-Coagulation CT2 [4]: 1.1 µM
pIC50 [5]: 3.43

CC(=N)N1CCC(Oc2ccc(C(Cc3ccc4ccc(C(=N)N)cc4c3)C(=O)O)cc2)CC1.Cl.Cl (single isomer, unassigned; (+)) [Inventive Example 43, (+)-2-[4-[(1-acetimidoyl-4-piperidinyl)oxy]phenyl]-3-(7-amidino-2-naphthyl)propionic Acid Dihydrochloride]
pIC50 [3]: 7.89
Anti-Coagulation CT2 [4]: 0.18 µM
pIC50 [5]: < 3.40

CC(=N)N1CC[C@H](Oc2ccc(C(CC(=O)O)Cc3cc4cc(C(=N)N)ccc4s3)cc2)C1.Cl.Cl (stereo partly drawn) [Inventive Example 104, 3-[4-[((3S)-1-acetimidoyl-3-pyrrolidinyl)oxy]phenyl]4-(5-amidinobenzo[b]thien-2-yl)butyric Acid Dihydrochloride]
solubility at 10 min [1]: ≥ 450 mg/mL
pIC50 [3]: 7.07
Anti-Coagulation CT2 [4]: 0.64 µM
pIC50 [5]: 3.64

CC(=N)N1CCC(Oc2ccc(C(Cc3cc4cc(C(=N)N)ccc4s3)C(=O)O)cc2)CC1.Cl.Cl (stereo not drawn) [Inventive Example 97, 2-[4-[(1-acetimidoyl-4-piperidinyl)oxy]phenyl]-3-(5-amidinobenzo[b]thien-2-yl)propionic acid Dihydrochloride]
pIC50 [3]: 7.35
Anti-Coagulation CT2 [4]: 0.23 µM
pIC50 [5]: 3.77

Cl.Cl.N=C(N)c1ccc2sc(CC(C(=O)O)c3ccc(O[C@H]4CCN(C(=N)C5CC5)C4)cc3)cc2c1 (stereo partly drawn) [Inventive Example 95, 3-(5-amidinobenzo[b]thien-2-yl)-2-[4-[((3S)-1-cyclopropanecarboximidoyl-3-pyrrolidinyl)oxy]phenyl]propionic Acid Dihydrochloride]
pIC50 [3]: 6.80
Anti-Coagulation CT2 [4]: 0.8 µM
pIC50 [5]: 4.59

CC(=N)N1CC[C@H](Oc2ccc(CC(C(=O)O)c3cc4cc(C(=N)N)ccc4s3)cc2)C1 (stereo partly drawn) [Inventive Example 106, 3-[4-[((3S)-1-acetimidoyl-3-pyrrolidinyl)oxy]phenyl]-2-(5-amidinobenzo[b]thien-2-ylpropionic Acid Dihydrochloride]
pIC50 [3]: 6.25
Anti-Coagulation CT2 [4]: 2.3 µM
pIC50 [5]: 4.00

CCn1c(CC(C(=O)O)c2ccc(O[C@H]3CCNC3)cc2)cc2ccc(C(=N)N)cc21.Cl.Cl (stereo partly drawn) [Inventive Example 73, 3-(6-amidino-1-ethyl-2-indolyl)-2-[4-[((3S)-3-pyrrolidinyl)oxy]phenyl]propionic Acid Dihydrochloride]
solubility at 10 min [1]: ≥ 450 mg/mL

Cl.Cl.N=C(N)c1ccc2cc(CC(C(=O)O)c3ccc(O[C@H]4CCNC4)cc3)[nH]c2c1 (single isomer, unassigned; (+)) [Inventive Example 48, Dihydrochloride]
pIC50 [3]: 6.44
pIC50 [5]: 4.30

CC(=N)N1CCC[C@H]1COc1ccc(C(Cc2cc3cc(C(=N)N)ccc3s2)C(=O)O)cc1.Cl.Cl (single isomer, unassigned; (+)) [Inventive Example 41, Dihydrochloride]
pIC50 [3]: 7.49
pIC50 [5]: 5.05

CCn1c(CC(C(=O)O)c2ccc(O[C@H]3CCN(C(C)=N)C3)cc2)cc2ccc(C(=N)N)cc21 (stereo partly drawn) [Inventive Example 105, 2-[4-[((3S)-1-(acetimidoyl-3-pyrrolidinyl)oxy]phenyl]-3-(6-amidino-1-ethyl-2-indolyl)propionic Acid Dihydrochloride]
Test/Control APTT Ratio ([2]; 0.5 hr): 2.69
Test/Control APTT Ratio ([2]; 1 hr): 3.60
Test/Control APTT Ratio ([2]; 2 hr): 2.41
Test/Control APTT Ratio ([2]; 4 hr): 1.66
pIC50 [3]: 7.27
Anti-Coagulation CT2 [4]: 0.35 µM
pIC50 [5]: 5.17

CC(=N)N1CCC[C@H]1COc1ccc(C(Cc2cc3cc(C(=N)N)ccc3s2)C(=O)O)cc1.Cl.Cl (stereo partly drawn) [Inventive Example 96, 2-[4-[((2S)-1-acetimidoyl-2-pyrrolidinyl)methoxy]phenyl]-3-(5-amidinobenzo[b]thien-2-yl)propionic Acid Dihydrochloride]
Test/Control APTT Ratio ([2]; 0.5 hr): 1.68
Test/Control APTT Ratio ([2]; 1 hr): 1.64
Test/Control APTT Ratio ([2]; 2 hr): 1.57
Test/Control APTT Ratio ([2]; 4 hr): 1.42
solubility at 10 min [1]: ≥ 400 mg/mL
pIC50 [3]: 7.36
Anti-Coagulation CT2 [4]: 0.54 µM
pIC50 [5]: 4.54

Cl.Cl.N=C(N)c1ccc2sc(CC(CC(=O)O)c3ccc(O[C@H]4CCNC4)cc3)cc2c1 (stereo partly drawn) [Inventive Example 61, 4-(5-amidinobenzo[b]thien-2-yl)-3-[4-[((3S)-3-pyrrolidinyl)oxy]phenyl]butyric Acid Dihydrochloride]
Test/Control APTT Ratio ([2]; 0.5 hr): 1.40
Test/Control APTT Ratio ([2]; 1 hr): 1.28
Test/Control APTT Ratio ([2]; 2 hr): 1.21
Test/Control APTT Ratio ([2]; 4 hr): 1.09

CC(=N)N1CC[C@H](Oc2ccc(C(Cc3nc4cc(C(=N)N)ccc4s3)C(=O)O)cc2)C1.Cl.Cl (stereo partly drawn) [Inventive Example 89, 2-[4-[((3S)-1-acetimidoyl-3-pyrrolidinyl)oxy]phenyl]-3-(5-amidino-2-benzothiazolyl)propionic Acid Dihydrochloride]
Test/Control APTT Ratio ([2]; 0.5 hr): 1.24
Test/Control APTT Ratio ([2]; 1 hr): 1.22
Test/Control APTT Ratio ([2]; 2 hr): 1.17
Test/Control APTT Ratio ([2]; 4 hr): 1.14
pIC50 [3]: 6.22
Anti-Coagulation CT2 [4]: 5 µM
pIC50 [5]: < 3.22

Cl.Cl.N=C(N)c1ccc2[nH]c(CC(C(=O)O)c3ccc(O[C@H]4CCNC4)cc3)cc2c1 (stereo partly drawn) [Inventive Example 68, 3-(5-amidino-2-indolyl)-2-[4-[((3S)-3-pyrrolidinyl)oxy]-phenyl]propionic acid Dihydrochloride]
pIC50 [3]: 6.77
Anti-Coagulation CT2 [4]: 1.45 µM
pIC50 [5]: 3.72

CC(=N)N1CCC[C@H]1COc1ccc(C(Cc2cc3cc(C(=N)N)ccc3s2)C(=O)O)cc1.Cl.Cl (single isomer, unassigned; (+)) [Inventive Example 41]
Anti-Coagulation CT2 [4]: 0.32 µM

CCn1c(CC(C(=O)O)c2ccc(OC3CCN(C(C)=N)CC3)cc2)cc2ccc(C(=N)N)cc21.Cl.Cl (stereo not drawn) [Inventive Example 98, 2-[4-[(1-acetimidoyl-4-piperidinyl)oxy]phenyl]-3-(6-amidino-1-ethyl-2-indolyl)propionic Acid Dihydrochloride]
Test/Control APTT Ratio ([2]; 0.5 hr): 4.07
Test/Control APTT Ratio ([2]; 1 hr): 3.96
Test/Control APTT Ratio ([2]; 2 hr): 3.37
Test/Control APTT Ratio ([2]; 4 hr): 2.19
pIC50 [3]: 7.96
Anti-Coagulation CT2 [4]: 0.3 µM
pIC50 [5]: 5.60

Cl.Cl.N=C(N)c1ccc2cc(CC(C(=O)O)c3ccc(O[C@H]4CCNC4)cc3)[nH]c2c1 (single isomer, unassigned; (+)) [Inventive Example 48]
Test/Control APTT Ratio ([2]; 0.5 hr): 1.46
Test/Control APTT Ratio ([2]; 1 hr): 1.42
Test/Control APTT Ratio ([2]; 2 hr): 1.41
Test/Control APTT Ratio ([2]; 4 hr): 1.18
Anti-Coagulation CT2 [4]: 3 µM
